This note sets out measurements from publication PMC6225253, “Chemical Constituents and Antidepressant-Like Effects in Ovariectomized Mice of the Ethanol Extract of Alternanthera philoxeroides” (Molecules : A Journal of Synthetic Chemistry and Natural …, 2018).

Structures are written as SMILES.

What all share (format): in vivo
Assay [1] deals with ovariectomized (OVX) mice. Kind of assay: Forced swimming test (FST) in ovariectomized mice. Particulars: oral once daily 8 weeks, E2 1 μg/kg/day, extract 250 and 500 mg/kg/day, vs vehicle-treated OVX group. The procedure:
(§1) The depressive-like symptoms of the OVX mice were evaluated using FST and TST (Figure 2A,B).
(§2) After a 3-day recovery period, the animals were divided into five groups: (1) sham, (2) ovariectomy (OVX), (3) ovariectomy + 1 μg/kg 17β-estradiol, (OVX + E2), (4) ovariectomy + 250 mg/kg of A. philoxeroides extract (OVX + AP250), and (5) ovariectomy + 500 mg/kg of A. philoxeroides extract (OVX + AP500). The sham and OVX control groups were orally administered distilled water 0.2 mL per mouse once daily for 8 weeks. 17β-Estradiol and A. philoxeroides extract were suspended in distilled water and orally administered 0.2 mL per mouse once daily for 8 weeks. To assess the effects of 17β-estradiol and A. philoxeroides extract in OVX mice, the drugs were administered 1 h before the behavioral tests. At the end of behavioral studies, the mice were anesthetized with pentobarbital sodium (Nembutal®) 60 mg/kg (i.p.). Thereafter, blood sera (1 mL) were collected by cardiac puncture and centrifuged (3000 rpm; 4 °C) for 15 min [53]. 17β-Estradiol and corticosterone levels were evaluated in the serum. […] Hippocampus and frontal cortex were collected for semi-quantitative reverse transcription-polymerase chain reaction (RT-PCR) assay. […]
The procedure was adapted from Vogel et al.. […] During a 6 min period, the total immobility time was recorded for the last 4 min.

Assay [2] deals with ovariectomized (OVX) mice. As to the kind of experiment: Tail suspension test (TST) in ovariectomized mice. The conditions noted are these: oral once daily 8 weeks, E2 1 μg/kg/day, extract 250 and 500 mg/kg/day, vs vehicle-treated OVX group. The procedure:
as §1, §2
The tail suspension test was used to assess the antidepressant effects of A. philoxeroides extract. […] The animal behavior was video-recorded for 6 min. […]

For assay [3], the system named is ovariectomized (OVX) mice. As to the kind of experiment: Serum 17β-estradiol level of OVX mice (electrochemiluminescence immunoassay). The conditions noted are these: OVX mice + E2 1 μg/kg/day, oral, 8 weeks; mean ± SEM, n = 3–4. How it is done: (§3) The levels of serum 17β-estradiol were evaluated (after decapitation) by electrochemiluminescence immunoassay. […] The weight and volume of the uterus were determined as an index of estrogen receptors activation.
as §2

The test system of a further assay is uterus of OVX mice. Kind of assay: Uterine weight and volume of OVX mice. The procedure: as §3
After a 3-day recovery period, the animals were divided into five groups: (1) sham, (2) ovariectomy (OVX), (3) ovariectomy + 1 μg/kg 17β-estradiol, (OVX + E2), (4) ovariectomy + 250 mg/kg of A. philoxeroides extract (OVX + AP250), and (5) ovariectomy + 500 mg/kg of A. philoxeroides extract (OVX + AP500). The sham and OVX control groups were orally administered distilled water 0.2 mL per mouse once daily for 8 weeks. 17β-Estradiol and A. philoxeroides extract were suspended in distilled water and orally administered 0.2 mL per mouse once daily for 8 weeks. To assess the effects of 17β-estradiol and A. philoxeroides extract in OVX mice, the drugs were administered 1 h before the behavioral tests. At the end of behavioral studies, the mice were anesthetized with pentobarbital sodium (Nembutal®) 60 mg/kg (i.p.). Thereafter, blood sera (1 mL) were collected by cardiac puncture and centrifuged (3000 rpm; 4 °C) for 15 min [53]. 17β-Estradiol and corticosterone levels were evaluated in the serum. Uteri were removed, trimmed of connective tissue and fat for measuring and weighing. Hippocampus and frontal cortex were collected for semi-quantitative reverse transcription-polymerase chain reaction (RT-PCR) assay. Both serum and all tissues were collected rapidly and kept at −80 °C for all experiments.

In assay [4] the test system is HPA-axis (serum corticosterone). As to the kind of experiment: Serum corticosterone level of OVX mice (ELISA). The conditions noted are these: extract 250 and 500 mg/kg/day, E2 1 µg/kg/day, p < 0.001 vs vehicle-treated OVX group. The procedure: The serum corticosterone was evaluated to clarify the feedback mechanism in the HPA-axis on the estrogen deprivation in the OVX mice. […] Serum corticosterone level was determined by corticosterone (CORT) ELISA kit (Assaypro LLC. St. Charles, MO, USA) and corticosterone was used as a standard, according to the previously described procedure. The serum of the sample 25 µL was added in 96-well microplates of ELISA kit and immediately added 25 µL of biotinylated corticosterone to each well. The 96-well microplates were gently mixed and incubated for 2 h at room temperature and then washed with 200 µL of wash buffer for five times and added 50 µL of streptavidin-peroxidase conjugate into each well before incubation for 30 minutes. Each well was washed with 200 µL of wash buffer for five times again and then added 50 µL of chromogen substrate and incubated for 20 minutes. The reaction was stopped by adding 50 µL of stop solution. The absorbance was immediately measured at 450 nm.

In another assay the test system is CREB and BDNF mRNAs. As to the kind of experiment: CREB and BDNF mRNA expression in hippocampus and frontal cortex (semi-quantitative RT-PCR). The conditions noted are these: hippocampus and frontal cortex of OVX mice; extract 250 and 500 mg/kg/day, E2 1 μg/kg/day. The source says:
After completing the behavioral analysis, mice were decapitated under anesthesia. Mouse cyclic AMP response element binding protein (CREB), brain-derived neurotrophic factor (BDNF), and β-actin mRNAs expression in hippocampus and frontal cortex were semi-quantified by RT-PCR as described previously. Total RNA was extracted from the tissues with TRIzol® (Thermo Fisher Scientific Inc., CA, USA) according to the manufacturer’s instructions. First-strand cDNA was synthesized with oligo (dT) primers and SuperScript III reverse transcriptase (Thermo Fischer Scientific Inc., California, USA). PCR amplification was carried out using gene-specific PCR primer sets as follows: β-actin: 5′-AACGGTCTCACGTCAGTGTA-3′ (sense) and 5′-GTGACAGCATTGCTTCTGTG-3′ (antisense); BDNF: 5′-GACAAGGCAACTTGGCCTAC-3′ (sense) and 5′-CCTGTCACACACGCTCAGCTC-3′ (antisense); and CREB: 5′-GAGGCAGCTTGAACAACAAC-3′ (sense) and 5′-TACCCAGGGAGGAGCAATAC-3′ (antisense). […] The amplified products were visualized, photographed under ultraviolet and semi-quantified by GeneSnap software (GSL Biotech, Chicago, IL, USA) and ImageJ software (National Institutes of Health, Bethesda, MD, USA). The relative mRNA expression (BDNF/β-actin and CREB/β-actin) in each treatment were calculated by comparing with the sham group.

Where [5] appears, read: OVX mice + E2 1 μg/kg/day, oral, 8 weeks, mean ± SEM.

Take `C[C@]12CC[C@@H]3c4ccc(O)cc4CC[C@H]3[C@@H]1CC[C@@H]2O` [17β-estradiol]: the “Immobility time in FST” value in assay [1] is “significantly shorter immobility time”. Further, the “Immobility time in TST” value in assay [2] is “significantly shorter immobility time”. For the same molecule, in assay [3], the “17β-estradiol (serum)” value is 24.81 ± 1.11 pg/mL. Besides, in the assay with uterus of OVX mice (setting [5]), the “Uterine Volume” value is 2.305 ± 0.02 ** cm^3/kg and the “Uterine Weight” value amounted to 3.055 ± 0.04 g/kg. The “Effect on uterus weight and volume” value in the assay on uterus of OVX mice (OVX mice, extract 250 and 500 mg/kg/day, E2 1 µg/kg/day, vs vehicle-treated OVX) is “statistically significant effects on uterus weight and volume”. Also, the “Serum corticosterone level (effect on HPA-axis)” value in assay [4] is “decreasing the serum corticosterone level”. The “CREB and BDNF mRNA expression levels” value in the assay on CREB and BDNF mRNAs is reported as “reversible by 17β-estradiol treatment”.
